Experimental data taken from patent publication US20090042849A1, “Phosphorylation of 5-lipoxygenase at ser523 and uses thereof” (priority 2006, published 2009).
“Also recorded” adds a separate entry of the source.

Assays:
rat infarct model = assay: rat infarct model, infarct size; assay type: in vivo; details: ATV 2 mg/kg/d, cilostazol 20 mg/kg/d, alone or combined
Protocol: The effects of cilostazol (Pletal) and atorvastatin on myocardial protection was measured in a rat infarct model. Pletal is a phosphodiesterase III inhibitor, thus increasing intracellular cAMP levels. cAMP activates PKA. ATV at 2 mg/kg/d had no effect. Cilostazol 20 mg/kg/d reduced infarct size. However, when combined with ATV 2 mg/kg/d the effect was much greater. There are 8 rats in the control and ATV 2 mg/kg/d groups and 6 rats in the cilostazol and the combination groups. Infarct size in the ATV 2 mg/kg/d (30.48±1.46%) is not different from the controls (33.97±2.76%).

[1] = tested on: 5LO (Ser523 phosphorylated 5LO); assay: immunoblotting of total 5LO and P-5LO in rat myocardium (whole cell homogenate); assay type: in vivo; details: for myocardial levels of Ser523 phosphorylated 5LO (P-5LO) / myocardial total 5LO levels: whole cell homogenate, PIO or ATV 10 mg/kg/d 3 days, H-89 20 mg/kg i.p.
Protocol: Rats received: 1) PIO (10 mg/kg/d); 2) ATV (10 mg/kg/d); 3) PIO (10 mg/kg/d)+H89 (20 mg/kg); 4) ATV (10 mg/kg/d)+H89 (20 mg/kg); 5) H89 (20 mg/kg) or 6) water alone (control). PIO and ATV were suspended in water and administered by gastric gavage once daily for 3 days; H-89 was dissolved in DMSO (final concentration 5% v/v) and injected intraperitoneally on the third day. Rats in groups 5 and 6 received water by gastric gavage once daily for 3 days. Rats in groups 1, 2 and 6 received intraperitoneal inkection of DMSO 5%. Sixteen hours after the injection, rats were euthanized and the hearts explanted for further analyses. In another experiment, rats received 3-day pretreatment with: 1) water (sham); 2) PIO (10 mg/kg/d); 3) ATV (10 mg/kg/d); 4) PIO (10 mg/kg/d)+ATV (10 mg/kg/d); or 5) LPS (10 mg/kg).
PIO and ATV were administered by oral gavage once daily as above; LPS was administered intravenously. In addition, rats in groups 1-4 received intravenous saline on the […], whereas rats in group 1 and 5 received water by gastric gavage once daily for 3 days and the LPS injection on the third day. Sixteen hours after the injection, rats were euthanized and the hearts explanted for further analyses.
(§1) The hearts were rapidly explanted, rinsed in cold PBS (pH 7.4), containing 0.16 mg/ml heparin to remove red blood cells and clots, frozen in liquid nitrogen and stored at −70° C. Myocardial samples from the anterior left ventricular wall were homogenized in RIPA lysis buffer (Santa Cruz Biotechnology, Santa Cruz, Calif.) and centrifuged at 14,000 rpm for 15 min at 4° C. The supernatant was collected and the total protein concentration was determined using the Lowry protein assay. […] The protein samples with loading buffer were run in 4-20% Tri-HCl Ready Gel at a 100V for 2 h until the desired molecular weight bands were separated. After electrophoresis, the gel was equilibrated in transfer buffer (25 mM Tris, 193 mM glycine, 0.1% SDS and 10% methanol) and the proteins were transferred to nitrocellulose membrane. The protein signals were quantified by an image-scanning-densitometer and the strength of each protein signal was normalized to the corresponding b-actin stain signal. Data are expressed as a ratio between the protein and the corresponding b-actin signal density.

5LO = assay: immunofluorescence of 5LO in adult rat cardiomyocyte cultures; assay type: cell-based; details: PIO 10 μM, ATV 10 μM, H-89 0.1 μM, 12 hours
Protocol: (§2) Cardiac myocytes were isolated from adult Sprague-Dawley rats (250-300 g, male). Animals were heparinized (1,000-2,000 units i.p.) 5 min before being anesthetized with ketamine (100 mg/kg) and xylazine (10 mg/kg), and the hearts were removed and placed in ice-cold heart media solution (in mmol/l: 112 NaCl, 5.4 KCl, 1 MgCl2, 9 NaH2PO4, and 11.1 D-glucose; supplemented with 10 HEPES, 30 taurine, 2 DL-carnitine, and 2 creatine, pH. 7.4). The hearts were perfused retrogradely in a Langendorff apparatus with Ca^2+-free heart media for 5 min at 5 ml/min at 37° C., followed by perfusion with Ca^2+-free heart media containing collagenase II, 210 U/mg (Worthington, Lakewood, N.J.) for 20 min. After perfusion, both ventricles were removed from the heart and minced in collagenase II-containing heart media for 10-15 min. The cell solution was then washed several times to remove collagenase II and reexposed to 1.2 mM Ca2^+ over 25 min to produce Ca2^+-tolerant cardiac myocytes. […]
Immunofluorescent labeling was performed on paraffin sections (5-μm) of 4% formaldehyde-fixed rat cardiac tissue, as described previously (22). […] All the slides were viewed under an Olympus BX51 microscope [images recorded by a DP70 Digital camera (Olympus Optical Co., Ltd., Tokyo, Japan)] or confocal microscope (Bio-Rad 2100 (Hercules, Calif.).

5LO (P-5LO) = assay: immunoblotting of 5LO and P-5LO in adult rat cardiac myocyte cultures; assay type: cell-based; details: H-89 0.1 μM with PIO+ATV
Protocol: as §2, with “min.” for “min. After perfusion, both ventricles were removed from the heart and minced in collagenase II-containing heart media for 10-15 min. The cell solution was then washed several times to remove collagenase II and reexposed to 1.2 mM Ca2^+ over 25 min to produce Ca2^+-tolerant cardiac myocytes.”
as §1, with “Myocardial samples from the anterior left ventricular wall were homogenized in RIPA lysis buffer (Santa Cruz Biotechnology, Santa Cruz, Calif.) and centrifuged at 14,000 rpm for 15 min at 4° C.” left out, “After electrophoresis, the gel was equilibrated in transfer buffer (25 mM Tris, 193 mM glycine, 0.1% SDS and 10% methanol) and the proteins were transferred to nitrocellulose membrane.” left out

Row | SMILES | Infarct size (rat infarct model) | effect on infarct size (in words) (rat infarct model) | 5LO phosphorylation, PIO and ATV compared with LPS ([1]; PIO, ATV 10 mg/kg/d, LPS 10 mg/kg i.v.) | myocardial levels of Ser523 phosphorylated 5LO (P-5LO) [1] | myocardial total 5LO levels [1] | effect on the increase in P-5LO by PIO and ATV ([1]; H-89 20 mg/kg i.p. with PIO or ATV 10 mg/kg/d) | 5LO expression and localization in cardiomyocytes (5LO) | effect on the 5LO phosphorylation by PIO+ATV (5LO (P-5LO))
1 | CC(C)c1c(C(=O)Nc2ccccc2)c(-c2ccccc2)c(-c2ccc(F)cc2)n1CCC(O)CC(O)CC(=O)O (stereo not shown) [ATV, 7-[2-(4-fluorophenyl)-5-(1-methylethyl)-3-phenyl-4-(phenylcarbamoyl)-1H-pyrrol-1-yl]-3,5-dihydroxy-heptanoic acid] | 30.48±1.46% | no effect | significantly greater increase | augment; also recorded: increased | without detectable change; also recorded: did not affect | – | – | –
2 | O=S(=O)(NCCNC/C=C/c1ccc(Br)cc1)c1cccc2cnccc12 [H-89] | – | – | – | did not affect | did not affect | completely blocked | no effect | almost completely blocked
